Target: recombinant DYRK1A kinase (Homo sapiens (Human), UniProt Q13627)
Assay: DYRK1A kinase assay (Ser/Thr 18 peptide Z-lyte FRET)
Format: biochemical
Conditions: DYRK1A kinase activity, Z-lyte Ser/Thr 18 peptide, 15 μM ATP; method text calls the value IC50; read-out: EC50 (the source's name)
Summary of the method: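 Compounds were tested as 11-point, threefold dilution series starting at 10 μM against recombinant enzyme in a 1 h room-temperature reaction with 15 μM ATP and 4 μM peptide substrate. Phosphorylation is read by protease-coupled FRET, and IC50 values come from curve fitting.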

SMILES	IC50
COc1nc(N[C@H]2C[C@@](C)(N(C)C)C2)nn2ccc(-c3ccc4ncccc4c3)c12 [Compound 1043, cis-N3-(4-Methoxy-5-(quinolin-6-yl)pyrrolo[2,1-f][1,2,4]triazin-2-yl)-N1,N1,1-trimethylcyclobutane-1,3-diamine]	2.8 nM
COc1nc(N[C@H]2CCN(CC(C)(C)O)C[C@H]2F)nn2ccc(-c3ccc4ncccc4c3)c12 [Compound 1045, 1-((3R,4S)-3-Fluoro-4-((4-methoxy-5-(quinolin-6-yl)pyrrolo[2,1-f][1,2,4]triazin-2-yl)amino)piperidin-1-yl)-2-methylpropan-2-ol]	4.5 nM
COc1nc(N[C@@H]2CCC(=O)N(C)C2)nn2ccc(-c3ccc4ncccc4c3)c12 [Compound 1049, (R)-5-((4-Methoxy-5-(quinolin-6-yl)pyrrolo[2,1-f][1,2,4]triazin-2-yl)amino)-1-methylpiperidin-2-one]	4.9 nM
COc1nc(N[C@@H]2CCCOC2)nn2ccc(-c3ccc4ncccc4c3)c12 [Compound 1050, (R)-4-Methoxy-5-(quinolin-6-yl)-N-(tetrahydro-2H-pyran-3-yl)pyrrolo[2,1-f][1,2,4]triazin-2-amine]	13.5 nM
COc1nc(N[C@H]2C[C@@](C)(NC(C)=O)C2)nn2cc(F)c(-c3ccc4ncccc4c3)c12 [Compound 1052, N-(cis-3-((6-Fluoro-4-methoxy-5-(quinolin-6-yl)pyrrolo[2,1-f][1,2,4]triazin-2-yl)amino)-1-methylcyclobutyl)acetamide]	4.5 nM
COc1nc(N[C@@H]2CCN(C3COC3)CC2(F)F)nn2cc(F)c(-c3ccc4ncccc4c3)c12 [Compound 1062, (R)—N-(3,3-Difluoro-1-(oxetan-3-yl)piperidin-4-yl)-6-fluoro-4-methoxy-5-(quinolin-6-yl)pyrrolo[2,1-f][1,2,4]triazin-2-amine]	3.7 nM
C[C@]1(O)CC[C@H](Nc2nc(OC3COC3)c3c(-c4ccc5ncccc5c4)ccn3n2)CC1 [Compound 1089, (1r,4r)-1-Methyl-4-((4-(oxetan-3-yloxy)-5-(quinolin-6-yl)pyrrolo[2,1-f][1,2,4]triazin-2-yl)amino)cyclohexan-1-ol]	4.5 nM
CN1CC[C@H](Nc2nc(OC3COC3)c3c(-c4ccc5ncccc5c4)ccn3n2)[C@H](F)C1 [Compound 1090, N-((3R,4S)-3-Fluoro-1-methylpiperidin-4-yl)-4-(oxetan-3-yloxy)-5-(quinolin-6-yl)pyrrolo[2,1-f][1,2,4]triazin-2-amine]	5.7 nM
COc1nc(N[C@@H]2COC[C@H]2O)nn2ccc(-c3ccc4nccnc4c3)c12 [Compound 1093, (3S,4R)-4-((4-Methoxy-5-(quinoxalin-6-yl)pyrrolo[2,1-f][1,2,4]triazin-2-yl)amino)tetrahydrofuran-3-ol]	4.3 nM
CCN1CC[C@@H](Nc2nc(OC)c3c(-c4ccc5nccnc5c4)ccn3n2)C(F)(F)C1 [Compound 1095, (R)—N-(1-Ethyl-3,3-difluoropiperidin-4-yl)-4-methoxy-5-(quinoxalin-6-yl)pyrrolo[2,1-f][1,2,4]triazin-2-amine]	4 nM
COc1nc(N[C@@H]2CCN(C(C)=O)CC2(F)F)nn2ccc(-c3ccc4nccnc4c3)c12 [Compound 1096, (R)-1-(3,3-Difluoro-4-((4-methoxy-5-(quinoxalin-6-yl)pyrrolo[2,1-f][1,2,4]triazin-2-yl)amino)piperidin-1-yl)ethan-1-one]	3 nM
COc1nc(NC2CC3(CCOCC3)C2)nn2ccc(-c3ccc4nccnc4c3)c12 [Compound 1100, 4-Methoxy-5-(quinoxalin-6-yl)-N-(7-oxaspiro[3.5]nonan-2-yl)pyrrolo[2,1-f][1,2,4]triazin-2-amine]	6.7 nM
CN1CC[C@@H](Nc2nc(OC3COC3)c3c(-c4ccc5nccnc5c4)ccn3n2)C(F)(F)C1 [Compound 1136, (R)—N-(3,3-Difluoro-1-methylpiperidin-4-yl)-4-(oxetan-3-yloxy)-5-(quinoxalin-6-yl)pyrrolo[2,1-f][1,2,4]triazin-2-amine]	3.8 nM
c1cnc2cc(-c3ccn4nc(NC5CC6(CCOCC6)C5)nc(OC5COC5)c34)ccc2n1 [Compound 1137, 4-(Oxetan-3-yloxy)-5-(quinoxalin-6-yl)-N-(7-oxaspiro[3.5]nonan-2-yl)pyrrolo[2,1-f][1,2,4]triazin-2-amine]	4.8 nM
c1cnc2cc(-c3ccn4nc(NC5CCC6(CC5)COC6)nc(OC5COC5)c34)ccc2n1 [Compound 1138, 4-(Oxetan-3-yloxy)-5-(quinoxalin-6-yl)-N-(2-oxaspiro[3.5]nonan-7-yl)pyrrolo[2,1-f][1,2,4]triazin-2-amine]	3.3 nM

Stronger by IC50, values ahead:

IC50	SMILES
1.2 nM	COc1nc(N[C@H]2C[C@](C)(C(=O)NC3(C)COC3)C2)nn2ccc(-c3ccc4ncccc4c3)c12 [Compound 1042, trans-3-((4-Methoxy-5-(quinolin-6-yl)pyrrolo[2,1-f][1,2,4]triazin-2-yl)amino)-1-methyl-N-(3-methyloxetan-3-yl)cyclobutane-1-carboxamide]
2.1 nM	COc1nc(N[C@H]2CCN(C(C)=O)C[C@H]2F)nn2ccc(-c3ccc4ncccc4c3)c12 [Compound 1047, 1-((3R,4S)-3-Fluoro-4-((4-methoxy-5-(quinolin-6-yl)pyrrolo[2,1-f][1,2,4]triazin-2-yl)amino)piperidin-1-yl)ethan-1-one]
1.3 nM	COc1nc(N[C@@H]2CCN(C(C)=O)CC2(F)F)nn2ccc(-c3ccc4ncccc4c3)c12 [Compound 1048, (R)-1-(3,3-Difluoro-4-((4-methoxy-5-(quinolin-6-yl)pyrrolo[2,1-f][1,2,4]triazin-2-yl)amino)piperidin-1-yl)ethan-1-one]
2 nM	COc1nc(N[C@H]2CC[C@@H](NC(C)=O)CC2)nn2cc(F)c(-c3ccc4ncccc4c3)c12 [Compound 1054, N-(cis-4-((6-Fluoro-4-methoxy-5-(quinolin-6-yl)pyrrolo[2,1-f][1,2,4]triazin-2-yl)amino)cyclohexyl)acetamide]
1.1 nM	COc1nc(N[C@H]2CC[C@](C)(O)CC2)nn2cc(F)c(-c3ccc4ncccc4c3)c12 [Compound 1056, trans-4-((6-Fluoro-4-methoxy-5-(quinolin-6-yl)pyrrolo[2,1-f][1,2,4]triazin-2-yl)amino)-1-methylcyclohexan-1-ol]
1.7 nM	COc1nc(N[C@H]2CCN(C)C[C@H]2F)nn2cc(F)c(-c3ccc4ncccc4c3)c12 [Compound 1057, 6-Fluoro-N-((3R,4S)-3-fluoro-1-methylpiperidin-4-yl)-4-methoxy-5-(quinolin-6-yl)pyrrolo[2,1-f][1,2,4]triazin-2-amine]
2.3 nM	COc1nc(N[C@H]2CCN(CC(C)(C)O)C[C@H]2F)nn2cc(F)c(-c3ccc4ncccc4c3)c12 [Compound 1058, 1-((3R,4S)-3-Fluoro-4-((6-fluoro-4-methoxy-5-(quinolin-6-yl)pyrrolo[2,1-f][1,2,4]triazin-2-yl)amino)piperidin-1-yl)-2-methylpropan-2-ol]
1.9 nM	COc1nc(N[C@H]2CCN(C3COC3)C[C@H]2F)nn2cc(F)c(-c3ccc4ncccc4c3)c12 [Compound 1059, 6-Fluoro-N-((3R,4S)-3-fluoro-1-(oxetan-3-yl)piperidin-4-yl)-4-methoxy-5-(quinolin-6-yl)pyrrolo[2,1-f][1,2,4]triazin-2-amine]
0.9 nM	COc1nc(N[C@H]2CCN(C(C)=O)C[C@H]2F)nn2cc(F)c(-c3ccc4ncccc4c3)c12 [Compound 1061, 1-((3R,4S)-3-Fluoro-4-((6-fluoro-4-methoxy-5-(quinolin-6-yl)pyrrolo[2,1-f][1,2,4]triazin-2-yl)amino)piperidin-1-yl)ethan-1-one]
2 nM	COc1nc(N[C@@H]2CCN(C(C)=O)CC2(F)F)nn2cc(F)c(-c3ccc4ncccc4c3)c12 [Compound 1064, (R)-1-(3,3-Difluoro-4-((6-fluoro-4-methoxy-5-(quinolin-6-yl)pyrrolo[2,1-f][1,2,4]triazin-2-yl)amino)piperidin-1-yl)ethan-1-one]
1.8 nM	CN1CC[C@@H](Nc2nc(OC3COC3)c3c(-c4ccc5ncccc5c4)ccn3n2)C(F)(F)C1 [Compound 1091, (R)—N-(3,3-Difluoro-1-methylpiperidin-4-yl)-4-(oxetan-3-yloxy)-5-(quinolin-6-yl)pyrrolo[2,1-f][1,2,4]triazin-2-amine]
2.7 nM	COc1nc(N[C@@H]2CCC(=O)N(C)C2)nn2ccc(-c3ccc4nccnc4c3)c12 [Compound 1097, (R)-5-((4-Methoxy-5-(quinoxalin-6-yl)pyrrolo[2,1-f][1,2,4]triazin-2-yl)amino)-1-methylpiperidin-2-one]
0.8 nM	C[C@]1(O)CC[C@H](Nc2nc(OCC(F)F)c3c(-c4ccc5nccnc5c4)ccn3n2)CC1 [Compound 1130, (1r,4r)-4-((4-(2,2-Difluoroethoxy)-5-(quinoxalin-6-yl)pyrrolo[2,1-f][1,2,4]triazin-2-yl)amino)-1-methylcyclohexan-1-ol]
0.5 nM	COc1nc(N[C@H]2CC[C@](C)(O)CC2)nn2ccc(-c3ccc4ncn(CC(F)F)c4c3)c12 [Compound 1139, (1r,4r)-4-((5-(1-(2,2-Difluoroethyl)-1H-benzo[d]imidazol-6-yl)-4-methoxypyrrolo[2,1-f][1,2,4]triazin-2-yl)amino)-1-methylcyclohexan-1-ol]
1.3 nM	COc1nc(N[C@@H]2CCN(C(C)=O)CC2(F)F)nn2ccc(-c3ccc4ncn(CC(F)F)c4c3)c12 [Compound 1140, (R)-1-(4-((5-(1-(2,2-Difluoroethyl)-1H-benzo[d]imidazol-6-yl)-4-methoxypyrrolo[2,1-f][1,2,4]triazin-2-yl)amino)-3,3-difluoropiperidin-1-yl)ethan-1-one]
1.4 nM	COc1nc(N[C@H]2CCN(C3COC3)C[C@H]2F)nn2ccc(-c3ccc4ncn(CC(F)F)c4c3)c12 [Compound 1141, 5-(1-(2,2-Difluoroethyl)-1H-benzo[d]imidazol-6-yl)-N-((3R,4S)-3-fluoro-1-(oxetan-3-yl)piperidin-4-yl)-4-methoxypyrrolo[2,1-f][1,2,4]triazin-2-amine]

— patent US20240002391A1, “4-ALKOXYPYRROLO[2,1-F][1,2,4]TRIAZINES AND PREPARATION AND USES THEREOF” (BioSplice Therapeutics, Inc., priority 2022, published 2024)
